# Residues, ends and D or L forms follow the SMILES beside them.
# System: LLCMK-2 cells
# Conditions: confluent LLCMK-2 monolayers; concentration ranges that showed viral inhibition; vs medium only controls, p>0.05; FIG. 4
# Protocol: The cytotoxicity of the chemistries was measured by monitoring mitochondrial reductase activity using the TACS™ MTT cell proliferation assay (R&D Systems, Inc., Minneapolis, Minn.) according to the manufacturer's instructions. Dilutions of chemistries in serum-free DMEM were added to confluent monolayers of LLCMK-2 cells in 96-well plates for 1 h at 37° C., similar to the focus forming inhibition assays, and subsequently incubated at 37° C. with 5% (v/v) CO2 for 24 h. Absorbance at 560 nm was measured using a Tecan GeniosPro plate reader (Tecan US, Durham, N.C.).
compound,measurement,value
CSCC[C@H](NC(=O)[C@H](Cc1c[nH]c2ccccc12)NC(=O)[C@@H](N)CCCNC(=N)N)C(=O)N[C@H](C(=O)N[C@@H](Cc1c[nH]c2ccccc12)C(=O)N[C@@H](CCCNC(=N)N)C(=O)N[C@@H](Cc1c[nH]cn1)C(=O)N[C@@H](Cc1c[nH]c2ccccc12)C(=O)N[C@@H](Cc1ccccc1)C(=O)N[C@@H](Cc1c[nH]cn1)C(=O)N[C@@H](CCCNC(=N)N)C(=O)N[C@@H](CC(C)C)C(=O)N[C@@H](CCCNC(=N)N)C(=O)N[C@@H](CC(C)C)C(=O)N1CCC[C@H]1C(=O)N[C@@H](Cc1ccc(O)cc1)C(=O)N[C@@H](CC(N)=O)C(=O)N1CCC[C@H]1C(=O)NCC(=O)N[C@@H](CCCCN)C(=O)N[C@@H](CC(N)=O)C(=O)N[C@@H](CCCCN)C(=O)N[C@@H](CCC(N)=O)C(=O)N[C@@H](CC(N)=O)C(=O)N[C@@H](CCC(N)=O)C(=O)N[C@@H](CCC(N)=O)C(=O)N[C@@H](Cc1c[nH]c2ccccc12)C(=O)N1CCC[C@H]1C(=O)O)C(C)C [DN81] (H-RWMVWRHWFHRLRLPYNPGKNKQNQQWP-OH),toxicity (mitochondrial reductase activity of target cells),not due to toxicity

# Reference: patent publication US8541377B2, “Optimized dengue virus entry inhibitory peptide (DN81)” (Florida Gulf Coast University, priority 2007, dated 2013)
